Source: the NIST ThermoML archive (doi:10.1021/je034290l)

Assays:
[1] = xn = mol fraction of the nth substance listed; settings: 101.32 kPa, Liquid
[2] = excess molar enthalpy (molar enthalpy of mixing); xn = mol fraction of the nth substance listed; settings: 101.32 kPa, Liquid, Calvet calorimetry
[3] = 318.15 K; 101.33 kPa; Liquid
[4] = refractive index (Na D-line) (dimensionless); settings: 318.15 K; 101.33 kPa; Liquid; Standard Abbe refractometry

CCC(=O)OC [methyl propanoate] + CC(C)(C)O
Settings	excess molar enthalpy [kcal/mol]	excess molar volume [m3/mol]
[1], 303.15 K, x1 = 0.0517	–	1.52e-07
[1], 303.15 K, x1 = 0.1081	–	2.93e-07
[1], 303.15 K, x1 = 0.1525	–	3.88e-07
[1], 303.15 K, x1 = 0.202	–	4.71e-07
[1], 303.15 K, x1 = 0.2516	–	5.43e-07
[1], 303.15 K, x1 = 0.3129	–	6.1e-07
[1], 303.15 K, x1 = 0.3638	–	6.48e-07
[1], 303.15 K, x1 = 0.406	–	6.67e-07
[1], 303.15 K, x1 = 0.4603	–	6.78e-07
[1], 303.15 K, x1 = 0.5167	–	6.79e-07
[1], 303.15 K, x1 = 0.5558	–	6.68e-07
[1], 303.15 K, x1 = 0.6086	–	6.41e-07
[1], 303.15 K, x1 = 0.6546	–	6.07e-07
[1], 303.15 K, x1 = 0.7197	–	5.43e-07
[1], 303.15 K, x1 = 0.752	–	4.91e-07
[1], 303.15 K, x1 = 0.8122	–	4.15e-07
[1], 303.15 K, x1 = 0.8545	–	3.48e-07
[1], 303.15 K, x1 = 0.9065	–	2.53e-07
[1], 303.15 K, x1 = 0.9394	–	1.73e-07
[1], 318.15 K, x1 = 0.075	–	1.94e-07
[1], 318.15 K, x1 = 0.1476	–	3.15e-07
[1], 318.15 K, x1 = 0.1952	–	4.16e-07
[1], 318.15 K, x1 = 0.2636	–	4.98e-07
[1], 318.15 K, x1 = 0.3159	–	5.59e-07
[1], 318.15 K, x1 = 0.3628	–	6.06e-07
[1], 318.15 K, x1 = 0.4165	–	6.39e-07
[1], 318.15 K, x1 = 0.4931	–	6.48e-07
[1], 318.15 K, x1 = 0.5472	–	6.41e-07
[1], 318.15 K, x1 = 0.6296	–	6.09e-07
[1], 318.15 K, x1 = 0.6429	–	5.87e-07
[1], 318.15 K, x1 = 0.7013	–	5.41e-07
[1], 318.15 K, x1 = 0.795	–	4.27e-07
[1], 318.15 K, x1 = 0.8267	–	3.68e-07
[1], 318.15 K, x1 = 0.8822	–	2.81e-07
[1], 318.15 K, x1 = 0.9493	–	1.39e-07
[2], 299.15 K, x1 = 0.0603	0.1	–
[2], 299.15 K, x1 = 0.1414	0.213	–
[2], 299.15 K, x1 = 0.2285	0.317	–
[2], 299.15 K, x1 = 0.3164	0.395	–
[2], 299.15 K, x1 = 0.3971	0.442	–
[2], 299.15 K, x1 = 0.4573	0.461	–
[2], 299.15 K, x1 = 0.4705	0.464	–
[2], 299.15 K, x1 = 0.5159	0.467	–
[2], 299.15 K, x1 = 0.5343	0.465	–
[2], 299.15 K, x1 = 0.5899	0.453	–
[2], 299.15 K, x1 = 0.6328	0.435	–
[2], 299.15 K, x1 = 0.6447	0.428	–
[2], 299.15 K, x1 = 0.7116	0.387	–
[2], 299.15 K, x1 = 0.7778	0.328	–
[2], 299.15 K, x1 = 0.8496	0.244	–
[2], 299.15 K, x1 = 0.9351	0.115	–
[2], 318.15 K, x1 = 0.0486	0.0779	–
[2], 318.15 K, x1 = 0.1007	0.153	–
[2], 318.15 K, x1 = 0.1707	0.24	–
[2], 318.15 K, x1 = 0.2374	0.31	–
[2], 318.15 K, x1 = 0.3021	0.364	–
[2], 318.15 K, x1 = 0.3578	0.4	–
[2], 318.15 K, x1 = 0.4076	0.425	–
[2], 318.15 K, x1 = 0.4404	0.439	–
[2], 318.15 K, x1 = 0.4827	0.445	–
[2], 318.15 K, x1 = 0.5312	0.45	–
[2], 318.15 K, x1 = 0.582	0.441	–
[2], 318.15 K, x1 = 0.6358	0.423	–
[2], 318.15 K, x1 = 0.6986	0.393	–
[2], 318.15 K, x1 = 0.7666	0.336	–
[2], 318.15 K, x1 = 0.8289	0.272	–
[2], 318.15 K, x1 = 0.8931	0.189	–
[2], 318.15 K, x1 = 0.9582	0.0935	–

CC(C)(C)O [2-methylpropan-2-ol]
Settings	mass density [kg/m3]	refractive index
[3]	759.87	–
[4]	–	1.3741
